Tests used:
[1] = previous study (Tsuchiya et al., 1981); cited from earlier work
Caco-2 cells = experiment: Intracellular accumulation and trans-epithelial transport in polarised Caco-2 cells; format: in vitro ADME, human
Description: Caco-2 cells were seeded at a density of 0.8×10^6 cells per well of a Transwell Clear filter 6 well plate, 0.4 μm pore size. The cells were incubated with 2 mL medium in both apical and basolateral chambers. This medium was replaced every 2 days for 10-14 days. Transepithelial resistance was measured using Millicell ERS apparatus (Millipore) at day 7, 10 and/or 14 in order to identify when the cells had become polarised. Readings of >1000 Ω were indicative of polarised cells. […]
(§1) All the supernatant and cell samples were transported frozen (at approximately −20° C.) to York Bioanalytical Solutions (York, England) for analysis. Briefly, 0.25 g of buffer (RPMI medium containing 10% FCS) was weighed into a polypropylene tube. A 50 μL volume of the appropriate working solution was added to the quality control (QC) samples. Methanol (50 μL) was added to each blank sample used for preparation of calibration standards, recovery samples and reagent blanks. A 2.5 mL volume of 0.1 M phosphate buffer was added to each sample, vortex mixed for approximately 1 min and then centrifuged at 3220×g for 10 min at 4° C.
(§2) For the liquid-liquid clean-up phase, an aliquot (100 μL) of the supernatant was transferred to a polypropylene tube. The pH was adjusted to pH 8-8.5 by the addition of 0.1 M NaOH, and vortex mixed. Ethyl acetate (5 mL) was added and after capping, the whole mixture was shaken for 10 min and then centrifuged at 3220×g for 10 min at 4° C.
(§3) Ammonium acetate (20 mM; pH native)—formic acid, 1000:3, v/v (100 μL) was added to each well in a 2 mL polypropylene collection plate. An aliquot of the ethyl acetate mixture (100 μL) was transferred to the polypropylene collection plate and evaporated under nitrogen (40° C.) until the ethyl acetate was fully evaporated whilst the ammonium acetate remained. Methanol (100 μL) was added to each well, excluding the calibration standards.
(§4) To each well containing a calibration standard, 100 μL of the appropriate calibration working solution was added. Samples were then vortex mixed for at least 10 min and submitted for liquid chromatography with tandem mass spectrometric analysis. The method stated was applicable to the samples of media (and the calibration standards and quality control samples).
(§5) For the cells, the sample tubes were weighed, and 100 μL of acetonitrile was added. The samples were vortex mixed for 10 sec, then centrifuged at 10285×g at 4° C. for 5 min. The sample was transferred to a polypropylene tube. The original sample tube was washed with 0.1 M phosphate buffer (1 mL). This was transferred to the polypropylene tube. A second wash of 1 mL was made, then a final wash of 0.5 mL. The polypropylene tube was now at the same stage as the end of the liquid extraction, but with the cells present rather than media. This was then taken through the sample preparation as described above. The original sample tubes were allowed to dry (i.e. any remaining solvent evaporated off) and were then reweighed to determine the weight of cells in the sample, to allow the concentration per gram of cells to be determined.

PRRSV = experiment: Inhibitors of PRRSV infection added at various times pre and post infection (Example 7); format: cell-based
LLC-PK1 cells = experiment: Intracellular accumulation in pig kidney epithelial cells; format: in vitro ADME; settings: LLC-PK1, 10 μg/mL
Description: LLC-PKI cells in 6 cm^2 plastic tissue culture dishes were incubated with 10 μg/mL of the different macrolides. Cells and medium were harvested as described above at 30, 75 and 120 min.
as §1, §2, §3, §4, §5

[2] = test system: PR8 strain of influenza A virus; experiment: Influenza infection of MDCK cells, immunofluorescence (Example 4), strain PR8; format: cell-based, human influenza; settings: 1 μg/ml, 4 h pretreatment, moi 10, fixed 4 h post infection
[3] = test system: chicken white blood cells; experiment: Intracellular accumulation in chicken white blood cells; format: in vitro ADME; settings: chicken white blood cells
Description: Pig blood was collected in Heparin-coated BD vacutainers (6). 20 mL of blood and 30 mL of phosphate buffered saline (PBS) were mixed in a 50 mL conical centrifuge tube. This was repeated in order to obtain 3 such tubes. The mixtures were centrifuged for 10 min at 2050×g. The white blood cells, together with some red blood cells below, were harvested into a 50 mL conical centrifuge tube. PBS was added to about 50 mL. A 63% solution of Percoll was made as follows: 6.3 mL Percoll (Sigma), 1.0 mL 1.5 M NaCl, 2.7 mL H2O. 10 mL of 63% Percoll was added to each of two 50 mL conical centrifuge tubes. 25 mL of the resuspended white blood cells were carefully layered on top of the each of the Percoll solutions. A sharp interface was produced. The material was centrifuged at 3000×g for 10 min. […] The white blood cells were harvested in PBS (50 mL) and centrifuged at 500×g for 10 min. The cell pellet was resuspended in medium (Glasgow minimum essential medium containing penicillin and streptomycin). A viable cell count was made using trypan blue. The same method used for isolation of pig WBCs was used for the chicken WBCs, with the exception that heparin (100 I.U./mL) was prepared and mixed with an equal volume of chicken whole blood.
All tubes were placed on a rotary mixing machine, at 37° C. Supernatant and cell samples were harvested at the times described in the figure legends. Duplicate samples were used for each antibiotic for each time point.
as §1, §2, §3, §4
as §5, with “The original sample tubes were allowed to dry (i.e. any remaining solvent evaporated off) and were then reweighed to determine the weight of cells in the sample, to allow the concentration per gram of cells to be determined.” left out

[4] = cited from earlier work
[5] = test system: equine influenza strain Miami; format: cell-based; settings: 1 μg/ml, 4 h pretreatment, moi 10, fixed 4 h post infection
[6] = Caco-2, 10 μg/mL, apical administration, 240 min
[7] = Caco-2, 100 μg/mL, apical administration, 30 min
[8] = Caco-2, 100 μg/mL, apical administration, 240 min
[9] = Caco-2, 100 μg/mL, apical administration, between 60 min and 120 min
[10] = Caco-2, 100 μg/mL, basolateral administration, 30 min
[11] = Caco-2, 100 μg/mL, basolateral administration, 240 min
[12] = added 2 or 4 hours after infection

CCC1OC(=O)CC(OC(C)=O)C(C)C(OC2OC(C)C(OC3CC(C)(O)C(OC(=O)CC(C)C)C(C)O3)C(N(C)C)C2O)C(CC=O)CC(C)C(=O)C=CC(C)=CC1COC1OC(C)C(O)C(OC)C1OC (stereo not drawn) [tylvalosin, 3-O acetyl-4″-O-isovaleryltylosin]
lipophilicity [1]: more lipophilic than either tylosin or 3AT | average intracellular concentration (Caco-2 cells; Caco-2, 10 μg/mL, apical administration, 120 min): 42.2 μg/mg cells | average intracellular concentration (Caco-2 cells; [6]): 34.3 μg/mg cells | basolateral chamber content as average % of the apical chamber value (Caco-2 cells; [6]): 10.47% | intracellular:extracellular ratio (fold concentration) (Caco-2 cells; [6]): 3.49 fold | average intracellular concentration (Caco-2 cells; [7]): 428 μg/mg cells | intracellular:extracellular ratio (Caco-2 cells; [7]): 4.64 | intracellular concentration (Caco-2 cells; [8]): 375 μg/mg cells | intracellular:extracellular ratio (Caco-2 cells; [8]): 5.85 | tylvalosin in opposite (basolateral) chamber compared to the administration chamber (Caco-2 cells; [8]): 19% | intracellular:extracellular ratio (peak, average value) (Caco-2 cells; [9]): 10.23-15.58 | maximum intracellular concentration (Caco-2 cells; [9]): 559.5-620 μg/mg cells | average intracellular concentration (Caco-2 cells; [10]): 493 μg/mg cells | intracellular:extracellular ratio (Caco-2 cells; [10]): 7 | intracellular concentration (Caco-2 cells; [11]): 155.5 μg/mg cells | intracellular:extracellular ratio (Caco-2 cells; [11]): 3.57 | tylvalosin in opposite (apical) chamber compared to the administration chamber (Caco-2 cells; [11]): 22.05% | total amount of tylvalosin transported across the cells (Caco-2 cells; Caco-2, after 4 h (discussion)): about 20% | PRRSV spread (PRRSV; [12]): inhibited | initial PRRSV infection (initial site of infection) (PRRSV; [12]): inhibited | initial PRRSV infection (PRRSV; added 4 hours before infection): inhibited | initial PRRSV infection (PRRSV; added at the time of infection): inhibited | average intracellular concentration (LLC-PK1 cells; 75 min): 53.95 μg/mg cells | intracellular:extracellular ratio (LLC-PK1 cells; 120 min): 8.9 | inhibition of infection of MDCK cells [2]: completely inhibited | average intracellular concentration ([3]; 10 μg/mL, 15 min): 89.8 μg/mg cells | intracellular concentration ([3]; 10 μg/mL, 60 min): 122.9 μg/mg cells | intracellular:extracellular ratio ([3]; 60 min): 19 fold | pKa [4]: 7.6 | inhibition of infection of MDCK cells [5]: 92%

— patent US9649324B2, “Use of tylvalosin as antiviral agent” (ECO ANIMAL HEALTH LIMITED, priority 2006, dated 2017)
